Assay [1] relates to nonmuscle myosin IIB. Description: Immunoprecipitation of nonmuscle myosin IIB and RT-PCR of collagen mRNAs. It counts as cell-based, human. The settings on record: lung fibroblasts; cycloheximide 100 μg/ml or puromycin 200 μg/ml, 2 h. How it is done:
ML-7, blebbistatin, cytochalasin B, puromycin, and cycloheximide were purchased from Sigma. ML-7 was used at 40 μM, blebbistatin was used at 100 μM, and cytochalasin B was used at 20 μM. Cells were incubated with the drugs for 16 h before analysis. Puromycin (200 μg/ml) and cycloheximide (100 μg/ml) were added to the cells for 2 h. Human lung fibroblasts have been described previously.16 Scleroderma fibroblasts were purchased from the European Collection of Cell Cultures (cell line BM0070) and derived from the skin of a scleroderma patient. MEFs were derived from knock-in mice in which the 5′SL of the collagen α1(I) gene has been mutated (Parsons et al., submitted). […] [^32P]dCTP was included in the PCR step to label the products, which were resolved on sequencing gels, as described previously.^8,31,49,50 When RNA from polysomal fractions was analyzed, an equal aliquot of each fraction was used. […]
One of the roles of nonmuscle myosin filaments may be to present collagen mRNAs to ribosomes. Therefore, we assessed if the association of collagen mRNAs with nonmuscle myosin is dependent on intact polysomes. […] We then immunoprecipitated nonmuscle myosin from lung fibroblasts treated with cycloheximide or puromycin and analyzed if this can change the pull-down of collagen mRNAs. As control, the association with vimentin was analyzed in the same samples (FIG. 9b). […]

For a further assay, the system named is human lung fibroblasts. Description: Western blot analysis of cellular and medium collagen polypeptides, lung fibroblasts. It counts as cell-based. The note with it: 16 h, ML-7 40 μM, blebbistatin 100 μM, vs control cells; for secretion of collagen α1(I) polypeptide into the medium / secretion of collagen α2(I) polypeptide into the medium / secretion/expression of fibronectin: cytochalasin B 20 μM. The procedure:
(§1) ML-7, blebbistatin, cytochalasin B, puromycin, and cycloheximide were purchased from Sigma. ML-7 was used at 40 μM, blebbistatin was used at 100 μM, and cytochalasin B was used at 20 μM. Cells were incubated with the drugs for 16 h before analysis. Puromycin (200 μg/ml) and cycloheximide (100 μg/ml) were added to the cells for 2 h. Human lung fibroblasts have been described previously.16 Scleroderma fibroblasts were purchased from the European Collection of Cell Cultures (cell line BM0070) and derived from the skin of a scleroderma patient. MEFs were derived from knock-in mice in which the 5′SL of the collagen α1(I) gene has been mutated (Parsons et al., submitted). Several independent cell isolates were used throughout the study. All cells were cultured in Dulbecco's modified Eagle's medium supplemented with 10% fetal bovine serum for up to 10 passages. Plasmid constructs and adenovirus preparation. The HA-tagged LARP6 clone and the deletion mutants have been described previously.^16 Adenoviruses were constructed by recloning of the constructs into the pAdCMVTRACK vector, followed by recombination with the pAdEasy vector and amplification, as described previously.^48 Expression of each construct was verified by Western blot analysis. The viruses made express both the full-size test protein and the green fluorescent protein (GFP), which is encoded by an independent transcription unit.^48 Expression of GFP served as control for viral transduction. RT-PCR analysis Total cellular RNA was isolated using an RNA isolation kit (Sigma). RT-PCRs were performed with 100 ng of total RNA or using rTth reverse transcriptase (Boca Scientific, Boca Raton, Fla.). [^32P]dCTP was included in the PCR step to label the products, which were resolved on sequencing gels, as described previously.^8,31,49,50 When RNA from polysomal fractions was analyzed, an equal aliquot of each fraction was used. The number of cycles was adjusted to within the linear range of the reaction. The primers used for RT-PCR were as follows: h-collagen α1(I), 5′ primer […] (SEQ ID NO:3) and 3′ primer […] (SEQ ID NO:4); h-collagen α2(I), 5′ primer […] (SEQ ID NO:5) and 3′ primer […] (SEQ ID NO:6).
(§2) Protein concentration was estimated by the Bradford assay, with bovine serum albumin as standard.^51 Western blot analyses of cellular proteins were performed using 50 μg of protein. For Western blot analysis of secreted proteins, equal numbers of cells were seeded, serum-free medium was added to the cells, and incubation continued for 3 h. The medium was collected, and an aliquot was analyzed directly by Western blot analysis. Use of serum free medium in collecting secreted proteins is essential because fetal calf serum contains substantial amounts of collagen and fibronectin.^15,31 For immunostaining, cells were seeded onto glass coverslips. After treatment, the cells were fixed with 4% paraformaldehyde for 30 min at room temperature and permeabilized with 0.5% Triton X-100 in phosphatebuffered saline (PBS) for 10 min. After the cells had been blocked with 10% goat serum/5% bovine serum albumin in PBS for 1 h at room temperature, they were incubated with primary antibody overnight at 4° C., washed, and visualized with AlexaFluor594-conjugated or Cy-2-conjugated secondary antibodies. The cells were mounted using VECTASHIELD mounting medium containing […], 6-diamidino-2-phenylindole (Vector Laboratories), and images were taken by a Leica TCS SP2 AOBS laser confocal microscope equipped with a Chameleon Ti: Sapphire multiphoton laser. Optical sections were processed with LCSLite software.
(§3) To assess the role of nonmuscle myosin in collagen synthesis, we disrupted nonmuscle myosin filaments in two different cell types: primary human lung fibroblasts and primary scleroderma skin fibroblasts. These cells are responsible for lung and skin fibrosis. […]
(In western blotting, separated proteins are transferred to a membrane and probed.)

The test system of assay [2] is primary scleroderma skin fibroblasts. The experiment in a line: Western blot analysis of cellular and medium collagen polypeptides, scleroderma fibroblasts. It counts as cell-based, human. The note with it: 16 h, ML-7 40 μM, blebbistatin 100 μM; for secretion of collagen α1(I) polypeptide into the medium / secretion of collagen α2(I) polypeptide into the medium / secretion/expression of fibronectin: cytochalasin B 20 μM. The procedure: as §1, §2, §3

The next assay has as its target T1, fibronectin (human, UniProt P02751 32-2477, limits assumed).
T1 construct: Specificity control in the co-immunoprecipitations, detected with anti-fibronectin antibody
Description: co-immunoprecipitation with anti-HA antibody from human lung fibroblasts, Western blot with anti-fibronectin.

Assay [3] concerns the target T2, nonmuscle myosin IIB (human, UniProt P35580 1-1976, limits assumed).
T2 construct: Endogenous protein in lysate of human lung fibroblasts, detected by Western blot with anti-myosin IIB (anti-MYH10) antibody; also called MYO IIB; MYH10
Description: co-immunoprecipitation with anti-HA antibody from human lung fibroblasts, Western blot with anti-myosin IIB. How it is done:
(§4) HA, Western blot analysis using anti-HA antibody as control for immunoprecipitation efficiency of the tagged proteins. (c) Experiment as in (b), but Western blot analysis was performed using anti-myosin IIA antibody (MYO IIA). […] Experiment as in (b), but the lysate was treated with Rnase. A prior to immunoprecipitation (lane 1) or was not treated (lanes 2 and 3). The immunoprecipitate was analyzed with anti-myosin IIB antibody (MYO IIB), anti-fibronectin antibody (FIB; as control for specificity), and anti-HA antibody (HA; as control for precipitation efficiency).

In a further assay the target is T3, nonmuscle myosin IIA (human, UniProt P35579 2-1960).
T3 construct: Endogenous protein in lysate of human lung fibroblasts, detected with anti-myosin IIA antibody; also called MYO IIA
T3 sequence (P35579 2-1960 limits assumed): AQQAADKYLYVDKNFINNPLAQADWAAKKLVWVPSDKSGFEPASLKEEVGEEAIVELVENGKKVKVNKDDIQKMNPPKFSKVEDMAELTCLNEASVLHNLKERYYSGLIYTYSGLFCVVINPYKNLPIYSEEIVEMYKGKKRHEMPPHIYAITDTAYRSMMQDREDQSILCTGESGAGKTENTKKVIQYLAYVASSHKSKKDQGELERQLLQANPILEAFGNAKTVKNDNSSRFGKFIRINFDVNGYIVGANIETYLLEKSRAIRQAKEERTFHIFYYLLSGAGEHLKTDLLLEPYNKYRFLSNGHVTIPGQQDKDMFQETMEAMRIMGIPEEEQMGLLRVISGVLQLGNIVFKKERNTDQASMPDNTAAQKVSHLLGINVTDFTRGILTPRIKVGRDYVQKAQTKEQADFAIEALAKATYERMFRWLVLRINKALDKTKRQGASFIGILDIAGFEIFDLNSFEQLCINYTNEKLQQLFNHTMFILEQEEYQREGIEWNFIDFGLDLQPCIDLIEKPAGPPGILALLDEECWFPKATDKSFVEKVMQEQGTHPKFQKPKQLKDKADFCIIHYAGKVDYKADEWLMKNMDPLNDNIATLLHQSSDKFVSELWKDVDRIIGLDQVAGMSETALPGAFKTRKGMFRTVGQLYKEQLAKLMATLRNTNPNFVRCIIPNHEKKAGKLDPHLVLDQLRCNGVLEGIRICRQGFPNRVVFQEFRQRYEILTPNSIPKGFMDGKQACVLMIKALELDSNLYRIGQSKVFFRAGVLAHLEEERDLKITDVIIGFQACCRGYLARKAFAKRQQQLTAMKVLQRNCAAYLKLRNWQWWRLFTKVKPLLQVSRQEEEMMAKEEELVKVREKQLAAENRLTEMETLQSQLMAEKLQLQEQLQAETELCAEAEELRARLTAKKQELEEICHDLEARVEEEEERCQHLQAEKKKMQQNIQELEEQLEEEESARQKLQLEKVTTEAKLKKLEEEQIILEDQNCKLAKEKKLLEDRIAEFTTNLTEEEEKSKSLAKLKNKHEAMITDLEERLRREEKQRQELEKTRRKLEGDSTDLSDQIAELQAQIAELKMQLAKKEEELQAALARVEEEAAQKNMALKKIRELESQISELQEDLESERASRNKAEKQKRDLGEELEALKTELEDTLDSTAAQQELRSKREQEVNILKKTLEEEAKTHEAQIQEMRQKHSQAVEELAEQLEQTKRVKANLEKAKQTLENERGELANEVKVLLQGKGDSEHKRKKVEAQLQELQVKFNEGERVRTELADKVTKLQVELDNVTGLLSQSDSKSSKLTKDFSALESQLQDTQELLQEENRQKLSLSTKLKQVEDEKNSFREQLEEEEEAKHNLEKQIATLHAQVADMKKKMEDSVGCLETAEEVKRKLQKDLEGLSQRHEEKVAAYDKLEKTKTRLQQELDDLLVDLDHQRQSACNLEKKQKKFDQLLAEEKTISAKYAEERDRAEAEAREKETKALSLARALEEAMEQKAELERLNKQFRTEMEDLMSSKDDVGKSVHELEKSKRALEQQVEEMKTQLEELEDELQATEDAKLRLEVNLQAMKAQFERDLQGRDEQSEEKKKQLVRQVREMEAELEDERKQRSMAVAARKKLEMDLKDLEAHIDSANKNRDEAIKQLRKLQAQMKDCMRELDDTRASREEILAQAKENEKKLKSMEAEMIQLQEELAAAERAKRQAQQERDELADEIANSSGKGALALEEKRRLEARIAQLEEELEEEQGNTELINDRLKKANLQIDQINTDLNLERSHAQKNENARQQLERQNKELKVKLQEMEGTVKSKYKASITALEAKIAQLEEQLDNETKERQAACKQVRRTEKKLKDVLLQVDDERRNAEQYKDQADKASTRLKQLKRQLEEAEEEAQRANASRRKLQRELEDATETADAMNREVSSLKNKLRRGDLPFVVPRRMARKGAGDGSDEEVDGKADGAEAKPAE
The experiment in a line: co-immunoprecipitation with anti-HA antibody from human lung fibroblasts, Western blot with anti-myosin IIA. How it is done:
as §4

T2 sequence (P35580 whole entry): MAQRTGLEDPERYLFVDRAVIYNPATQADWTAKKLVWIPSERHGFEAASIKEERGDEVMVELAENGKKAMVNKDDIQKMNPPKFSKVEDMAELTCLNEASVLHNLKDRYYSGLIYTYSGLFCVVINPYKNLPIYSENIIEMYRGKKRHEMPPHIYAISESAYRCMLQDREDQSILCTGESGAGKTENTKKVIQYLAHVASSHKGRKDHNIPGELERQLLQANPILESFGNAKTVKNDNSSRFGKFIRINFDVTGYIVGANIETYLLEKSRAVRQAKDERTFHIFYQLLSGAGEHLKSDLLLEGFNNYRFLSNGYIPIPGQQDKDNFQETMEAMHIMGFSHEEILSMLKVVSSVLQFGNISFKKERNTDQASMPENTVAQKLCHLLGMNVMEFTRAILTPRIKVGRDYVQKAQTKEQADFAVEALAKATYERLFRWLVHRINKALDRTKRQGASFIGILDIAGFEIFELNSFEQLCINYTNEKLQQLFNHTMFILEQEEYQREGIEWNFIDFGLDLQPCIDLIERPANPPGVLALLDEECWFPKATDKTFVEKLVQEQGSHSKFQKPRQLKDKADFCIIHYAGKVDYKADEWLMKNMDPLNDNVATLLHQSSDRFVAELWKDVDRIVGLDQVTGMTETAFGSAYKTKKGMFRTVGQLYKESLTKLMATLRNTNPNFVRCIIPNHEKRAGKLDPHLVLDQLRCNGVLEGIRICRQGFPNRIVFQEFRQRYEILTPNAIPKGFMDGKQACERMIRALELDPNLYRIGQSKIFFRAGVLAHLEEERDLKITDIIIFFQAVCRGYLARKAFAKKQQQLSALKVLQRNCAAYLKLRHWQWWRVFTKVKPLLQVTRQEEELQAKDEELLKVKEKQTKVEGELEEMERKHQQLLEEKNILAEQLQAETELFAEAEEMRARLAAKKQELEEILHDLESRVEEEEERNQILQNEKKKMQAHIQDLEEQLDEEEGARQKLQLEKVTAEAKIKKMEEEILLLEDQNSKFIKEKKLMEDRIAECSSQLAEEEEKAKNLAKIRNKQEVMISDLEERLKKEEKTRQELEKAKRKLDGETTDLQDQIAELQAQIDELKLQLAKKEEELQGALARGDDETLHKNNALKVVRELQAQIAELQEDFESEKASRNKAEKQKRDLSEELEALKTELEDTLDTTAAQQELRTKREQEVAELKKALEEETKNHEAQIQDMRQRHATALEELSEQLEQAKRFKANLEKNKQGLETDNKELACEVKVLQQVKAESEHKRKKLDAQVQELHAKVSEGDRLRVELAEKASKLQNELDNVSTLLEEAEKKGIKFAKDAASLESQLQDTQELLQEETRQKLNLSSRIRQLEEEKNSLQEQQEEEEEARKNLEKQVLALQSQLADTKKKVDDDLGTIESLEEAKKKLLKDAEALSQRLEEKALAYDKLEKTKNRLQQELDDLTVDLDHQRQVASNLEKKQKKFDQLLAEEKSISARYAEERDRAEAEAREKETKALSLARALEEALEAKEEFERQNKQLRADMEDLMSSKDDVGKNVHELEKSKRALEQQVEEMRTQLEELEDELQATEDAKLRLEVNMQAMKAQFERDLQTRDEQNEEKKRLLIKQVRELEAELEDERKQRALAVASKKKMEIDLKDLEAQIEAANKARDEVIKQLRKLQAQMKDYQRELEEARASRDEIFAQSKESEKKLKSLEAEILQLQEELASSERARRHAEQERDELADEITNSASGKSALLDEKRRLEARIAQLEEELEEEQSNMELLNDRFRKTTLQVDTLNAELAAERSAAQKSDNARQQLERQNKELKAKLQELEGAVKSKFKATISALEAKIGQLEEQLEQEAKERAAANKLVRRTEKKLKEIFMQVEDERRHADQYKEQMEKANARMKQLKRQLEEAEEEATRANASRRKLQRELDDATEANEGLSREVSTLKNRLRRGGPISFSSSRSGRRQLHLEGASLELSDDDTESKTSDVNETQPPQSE

For the molecule `C[C@@H]1C[C@@H]([C@H](O)CC2CC(=O)NC(=O)C2)C(=O)[C@@H](C)C1` [cycloheximide], the “collagen α1(I) and α2(I) mRNAs pulled down with nonmuscle myosin IIB” value with nonmuscle myosin IIB [1] is recorded as “both collagen mRNAs were pulled down”.
For `C=C1[C@@H](C)[C@H]2[C@H](Cc3ccccc3)NC(=O)[C@]23OC(=O)/C=C/[C@H](O)CCC[C@@H](C)C/C=C/[C@H]3[C@@H]1O` [cytochalasin B], in the assay on human lung fibroblasts, the “secretion of collagen α1(I) polypeptide into the medium” value is listed as “diminished”, the “secretion of collagen α2(I) polypeptide into the medium” value is given as “diminished” and the secretion/expression of fibronectin result is “had an effect”. In addition, in assay [2], the “secretion of collagen α1(I) polypeptide into the medium” value is “no effect”, the “secretion of collagen α2(I) polypeptide into the medium” value is “small effect” and the secretion/expression of fibronectin entry is “small effect”.
For `Cc1ccc2c(c1)C(=O)C1(O)CCN(c3ccccc3)C1=N2` (centres unmarked) [blebbistatin], in the assay with human lung fibroblasts, the “secretion of collagen α1(I) polypeptide into the medium” value was “minimally affecting”; the “secretion of collagen α2(I) polypeptide into the medium” value is on record as “reduced”; the secretion/expression of fibronectin entry is “small effect”; the “intracellular level of collagen α1(I) and α2(I) polypeptides” value is “unchanged”. In addition, in assay [2], the “intracellular level of collagen α1(I) polypeptide” value is listed as “unchanged”, the “intracellular level of collagen α2(I) polypeptide” value is recorded as “unchanged”, the “secretion of collagen α1(I) polypeptide into the medium” value is reported as “minimally affecting” and the “secretion of collagen α2(I) polypeptide into the medium” value was “abolished”. Further, in assay [2], the secretion/expression of fibronectin entry is “small effect”.

B1: HA-tagged full-size LARP6 (other)
chain: MAQSGGEARPGPKTAVQIRVAIQEAEDVDELEDEEEGAETRGAGDPARYLSPGWGSASEEEPSRGHSGTTASGGENEREDLEQEWKPPDEELIKKLVDQIEFYFSDENLEKDAFLLKHVRRNKLGYVSVKLLTSFKKVKHLTRDWRTTAHALKYSVVLELNEDHRKVRRTTPVPLFPNENLPSKMLLVYDLYLSPKLWALATPQKNGRVQEKVMEHLLKLFGTFGVISSVRILKPGRELPPDIRRISSRYSQVGTQECAIVEFEEVEAAIKAHEFMITESQGKENMKAVLIGMKPPKKKPAKDKNHDEEPTASIHLNKSLNKRVEELQYMGDESSANSSSDPESNPTSPMAGRRHAATNKLSPSGHQNLFLSPNASPCTSPWSSPLAQRKGVSRKSPLAEEGRLNCSTSPEIFRKCMDYSSDSSVTPSGSPWVRRRRQAEMGTQEKSPGTSPLLSRKMQTADGLPVGVLRLPRGPDNTRGFHGHERSRACV
notes: Expressed from adenovirus in human lung fibroblasts and immunoprecipitated from cell lysate with anti-HA antibody; also called HA-tagged LARP6; not shown: HA tag
Regarding B1, in the assay with fibronectin, the binding result was “no binding”.

B2: HA-tagged RBMS3 (other, UniProt Q6XE24 1-437, looked up)
chain: MGKRLDQPQMYPQYTYYYPHYLQTKQSYAPAPHPMAPPSPSTNSSSNNSSNNSSGEQLSKTNLYIRGLPPGTTDQDLIKLCQPYGKIVSTKAILDKNTNQCKGYGFVDFDSPAAAQKAVASLKANGVQAQMAKQQEQDPTNLYISNLPISMDEQELENMLKPFGHVISTRILRDANGVSRGVGFARMESTEKCEVVIQHFNGKYLKTPPGIPAPSEPLLCKFADGGQKKRQNQSKYTQNGRPWPREGEAGMALTYDPTAAIQNGFYSSPYSIATNRMIPQTSITPFIAASPVSTYQVQSTSWMPHPPYVMQPTGAVITPTMDHPMSMQPANMMGPLTQQMNHLSLGTTGTIQSQDRIMILHQLLCQYMTAAAPMQGTYIPQYTPVPPTAVSIEGVVADTSPQTVAPSSQDTSGQQQQIAVDTSNEHAPAYSYQQSKP
notes: Control protein expressed in human lung fibroblasts; not shown: HA tag
As for B2, the binding result with nonmuscle myosin IIB [3] was “no binding”.

B3: HA-tagged LARP6 lacking the C-terminal domain (ΔC-LARP6) (other)
chain: MAQSGGEARPGPKTAVQIRVAIQEAEDVDELEDEEEGAETRGAGDPARYLSPGWGSASEEEPSRGHSGTTASGGENEREDLEQEWKPPDEELIKKLVDQIEFYFSDENLEKDAFLLKHVRRNKLGYVSVKLLTSFKKVKHLTRDWRTTAHALKYSVVLELNEDHRKVRRTTPVPLFPNENLPSKMLLVYDLYLSPKLWALATPQKNGRVQEKVMEHLLKLFGTFGVISSVRILKPGRELPPDIRRISSRYSQVGTQECAIVEFEEVEAAIKAHEFMITESQGKENMKAVLIGMKPPKKKP
notes: Expressed in human lung fibroblasts; also called HA-tagged ΔC-LARP6; C-terminal deletion mutant of LARP6; not shown: HA tag
Turning to B3, the binding result in the assay with nonmuscle myosin IIA and with nonmuscle myosin IIB [3] was “no binding” in each case.

(Values after patent publication US8697385B1, “Protein controlling synthesis of collagen and associated methods” (Florida State University Research Foundation, Inc., priority 2009, dated 2014).)
